According to patent publication US6825348B2, “Antiviral compounds” (Academia Sinica, priority 2002, dated 2004):
pKi: −log10 of the molar value. ≈ marks a conversion by molar mass, not a printed value. Where two headings read alike, the source gives them in different places.

What was measured:
[1] = tested on: herpes simplex type 1 virus (HSV-1) (KOS); experiment: Inhibition of HSV-1 cytopathogenicity in Vero cell culture; format: cell-based; settings: read-out: IC50 HSV-1 (KOS)
MT4 cells = experiment: Toxicity toward MT4 cells
[2] = tested on: moloney murine sarcoma virus (MSV); experiment: Inhibition of MSV cytopathogenicity in CEM cells (cell-protection assay); format: cell-based; settings: Moloney murine sarcoma virus, CCRF-CEM; CEM cells, average of duplicates; read-out: IC50 MSV
CEM cells = experiment: Toxicity toward CEM cells
[3] = target: T1, calf mucosal adenosine deaminase (ADA, EC 3.5.4.4) (Bos taurus, UniProt P56658); experiment: Substrate activity and competitive inhibition of adenosine deaminase; format: biochemical; settings: for pKi: inhibition of ADA with ara-A 3 as substrate
T1 sequence (P56658 1-363): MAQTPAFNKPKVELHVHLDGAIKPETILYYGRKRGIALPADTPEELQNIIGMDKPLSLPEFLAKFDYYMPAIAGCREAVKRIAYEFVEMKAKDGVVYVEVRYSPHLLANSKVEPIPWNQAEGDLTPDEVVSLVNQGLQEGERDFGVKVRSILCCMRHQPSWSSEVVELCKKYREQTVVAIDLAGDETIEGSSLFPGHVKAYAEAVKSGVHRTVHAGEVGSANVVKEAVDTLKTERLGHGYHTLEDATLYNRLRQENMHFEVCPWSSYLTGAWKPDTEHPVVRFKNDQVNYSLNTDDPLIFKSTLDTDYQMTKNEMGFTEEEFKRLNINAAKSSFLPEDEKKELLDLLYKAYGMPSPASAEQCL

PRPP synthetase = PRPP synthetase (UniProt P0A717); experiment: PRPP synthetase reaction, conversion to diphosphates and inhibition of AMP phosphorylation; format: biochemical; settings: inhibition of AMP phosphorylation, 37° C., 15 min
Method: Enzymatic Conversion of Acyclic Nucleoside Phosphonates and Nucleotide 5′-Monophosphate Analog to Their Antivirally Active Diphosphates (Triphosphate Equivalents). Substrate affinities of acyclic nucleoside phosphonates 4, 20, 21, and dinucleotide analog 24 for PRPP synthetase as well as their inhibitory effect against the enzyme were evaluated according to the established procedures. See, e.g., Balzarini et al. (1991) J. Biol. Chem. 266: 8686-8689 and references cited therein. The assays were then terminated after 4 h by the addition of MeOH. HPLC on an anion-exchange Partisphere column was used to analyze the formation of […] 21pp, PMEApp, 4pp, 20pp, and 24pp.

HIV-1 (IIIB) = experiment: microbe, parasite or virus in culture; format: cell-based; settings: Human immunodeficiency virus 1, IIIB; MT4 cells, average of duplicates; read-out: IC50 HIV-1 (IIIB)
[4] = Lipophilicity, 1-octanol/water partition coefficient
HeLa cells [5] = experiment: Toxicity, morphological changes in HeLa cells
[6] = tested on: thymidine kinase-deficient (TK−) varicella-zoster virus (YS/R); experiment: microbe, parasite or virus in culture; format: cell-based; settings: Human alphaherpesvirus 3, Vero, read-out: IC50 TK−VZV (YS/R)
HSV-1 (KOS) = experiment: Anti-HSV-1 activity in vivo, HSV-1-induced mortality in NMRI mice; settings: 6 days; for mean day of animal death / mean day of symptom initiation: terminated day 21; for responders at 100 mg/kg / responders at 150 mg/kg / responders at 250 mg/kg: Human alphaherpesvirus 1, ip, 504 h; for protection against HSV-induced mortality: 150 mg/kg dose level i.p.
Vero cells [7] = experiment: Toxicity, morphological changes in Vero cells
HIV-2 (LAV-2) = experiment: Inhibition of HIV-2 cytopathogenicity in MT4 cells; format: cell-based, human immunodeficiency virus; settings: Human immunodeficiency virus 2; MT4 cells, average of duplicates; read-out: IC50 HIV-2 (LAV-2)
[8] = Solubility in water (phosphate buffer, UV absorbance); settings: pH 6.8, aqueous buffer, thermodynamic from solid
[9] = tested on: human cytomegalovirus (AD-169); experiment: Inhibition of HCMV cytopathogenicity in Vero cell culture; format: cell-based; settings: Human betaherpesvirus 5, AD169; Vero cell culture; 50% inhibition of cytopathogenicity; for 1:1 mixtures IC50 refers to known antiviral drugs; read-out: IC50 HCMV (AD-169)
[10] = tested on: thymidine kinase-positive (TK+) varicella-zoster virus (YS); experiment: Inhibition of TK+ VZV cytopathogenicity in Vero cell culture; format: cell-based
[11] = LD50 and toxicity in mice, intraperitoneal
[12] = tested on: Snake venom phosphodiesterase; experiment: Activity of snake venom phosphodiesterase against nucleotide analogs; settings: pH 9.2, 37° C., 8 h
HeLa cells [13] = settings: human
Vero cells [14] = settings: African green monkey
MSV = settings: for mean day of animal death / percentage of MSV-infected mice alive at day 21 postinfection / percentage of MSV-infected mice without tumors at day 21 postinfection: two injections; for mean day of tumor initiation: two injections within two days
[15] = Human alphaherpesvirus 1, Vero cell culture, 50% inhibition of virus-induced cytopathogenicity, mean of duplicates, for 1:1 (W/W) mixtures IC50 refers to known antiviral drugs
[16] = 100 mg/kg/day i.p., read-out: percentage of HSV-1-infected mice alive at day 21 postinfection
[17] = 100 mg/kg/day i.p., read-out: percentage of HSV-1-infected mice without symptoms at day 21 postinfection
[18] = 150 mg/kg/day i.p., read-out: percentage of HSV-1-infected mice alive at day 21 postinfection
[19] = 150 mg/kg/day i.p., read-out: percentage of HSV-1-infected mice without symptoms at day 21 postinfection
[20] = 250 mg/kg/day i.p., read-out: percentage of HSV-1-infected mice alive at day 21 postinfection
[21] = 250 mg/kg/day i.p., read-out: percentage of HSV-1-infected mice without symptoms at day 21 postinfection

Row | Compound | IC50 [1, 15] | MT4 cell, concentration reducing the number of viable uninfected cells by 50% (MT4 cells) | IC50 [2] | CEM cell, concentration reducing the number of viable uninfected cells by 50% (CEM cells) | ADA substrate / inhibitor property in words [3] | IC50 (HIV-1 (IIIB)) | mean day of animal death (HSV-1 (KOS); 100 mg/kg/day i.p.) | mean day of symptom initiation (HSV-1 (KOS); 100 mg/kg/day i.p.) | mean day of animal death (HSV-1 (KOS); 150 mg/kg/day i.p.) | mean day of symptom initiation (HSV-1 (KOS); 150 mg/kg/day i.p.) | mean day of animal death (HSV-1 (KOS); 250 mg/kg/day i.p.) | mean day of symptom initiation (HSV-1 (KOS); 250 mg/kg/day i.p.) | responders at 100 mg/kg (HSV-1 (KOS); [16]) | responders at 100 mg/kg (HSV-1 (KOS); [17]) | responders at 150 mg/kg (HSV-1 (KOS); [18]) | responders at 150 mg/kg (HSV-1 (KOS); [19]) | responders at 250 mg/kg (HSV-1 (KOS); [20]) | responders at 250 mg/kg (HSV-1 (KOS); [21]) | IC50 (HIV-2 (LAV-2)) | IC50 [9] | further results
1 | Nc1ncnc2ncn(CCOCP(=O)(O)O)c12 [Compound 20, 7-[2-(Phosphonomethoxy)ethyl]adenine] | 20 µg/mL (≈ 73.2 µM) | >300 µg/mL | 27 µg/mL (≈ 98.8 µM) | >300 µg/mL | neither a good substrate nor an inhibitor | 7.8 µg/mL (≈ 28.6 µM) | 15.4 ± 1.3 days | 12.8 ± 1.1 days | 17.8 ± 1.5 days | 15.0 ± 0.9 days | 20.0 ± 1.7 days | 16.8 ± 2.4 days | 70% | 51% | 80% | 62% | 95% | 75% | 9.1 µg/mL (≈ 33.3 µM) | 21 µg/mL (≈ 76.9 µM) | pKi [3]: < 3.10; pKi (PRPP synthetase): 1.78; logP at […] [4]: 0.95; HeLa cell, concentration causing microscopically visible change or disruption in about 50% of the cell sheet (HeLa cells [5]): 236 µg/mL; IC50 [6]: 8 µg/mL (≈ 29.3 µM); Vero cell, concentration causing microscopically visible change or disruption in about 50% of the cell sheet (Vero cells [7]): 246 µg/mL; solubility at 20 h [8]: 2890 µg/mL (≈ 10600 µM)
2 | COC1=C(OC)/C(=C/COP(=O)(O)OC[C@H]2O[C@@H](n3cnc4c(N)ncnc43)[C@H](O)[C@@H]2OP(=O)(O)COCCn2cnc3ncnc(N)c32)OC1=O [Compound 25, 9-[[(Z)-4-(ethylidene)-2,3-dimethoxy-Δ^a,b-butenolide]-β-D-furanosyl]adenine-3′-[[1-(adenin-7-yl-ethoxy)methyl]phosphonate]-4,5′-phosphate] | – | >300 µg/mL | 13 µg/mL (≈ 16.9 µM) | >300 µg/mL | neither a good substrate nor an inhibitor | 4.9 µg/mL (≈ 6.36 µM) | >21 days | 19.6 ± 1.5 days | >21 days | >21 days | >21 days | >21 days | 100% | 94% | 100% | 100% | 100% | 100% | 4.2 µg/mL (≈ 5.45 µM) | 4.1 µg/mL (≈ 5.32 µM) | IC50 ([1]; Human alphaherpesvirus 1, Vero): 3 µg/mL (≈ 3.89 µM); IC50 TK+VZV (YS) [10]: 1.7 µg/mL (≈ 2.21 µM); logP at […] ([4]; 1-octanol/water (0.10 M phosphate buffer)): 1.37; LD50 ([11]; NMRI, mouse, in vivo, ip): 675 mg/kg; level up to which no toxicity was shown ([11]; mice, intraperitoneal): 400 mg/kg; stability to snake venom phosphodiesterase in words [12]: completely resistant; HeLa cell, concentration causing microscopically visible change or disruption in about 50% of the cell sheet (HeLa cells [13]): 326 µg/mL; IC50 [6]: 2 µg/mL (≈ 2.6 µM); protection against HSV-induced mortality (HSV-1 (KOS)): full protection; solubility at 20 h ([8]; phosphate buffer): 5160 µg/mL (≈ 6700 µM); Vero cell, concentration causing microscopically visible change or disruption in about 50% of the cell sheet (Vero cells [14]): 350 µg/mL
3 | Nc1ncnc2c1ncn2CCOCP(=O)(O)O [PMEA 4, 9-[2-(phosphonomethoxy)ethyl]adenine, reference compound] | 11 µg/mL (≈ 40.3 µM) | 274 µg/mL | 2 µg/mL (≈ 7.32 µM) | 285 µg/mL | neither a good substrate nor an inhibitor | 4.1 µg/mL (≈ 15 µM) | 17.0 ± 1.1 days | 14.7 ± 1.4 days | >21 days | 18.5 ± 1.9 days | >21 days | >21 days | 77% | 56% | 100% | 80% | 100% | 100% | 3.8 µg/mL (≈ 13.9 µM) | 15 µg/mL (≈ 54.9 µM) | pKi [3]: < 3.10; pKi (PRPP synthetase): 2.52; logP at […] [4]: 0.69; HeLa cell, concentration causing microscopically visible change or disruption in about 50% of the cell sheet (HeLa cells [5]): 146 µg/mL; protection against HSV-induced mortality (HSV-1 (KOS)): full protection; Vero cell, concentration causing microscopically visible change or disruption in about 50% of the cell sheet (Vero cells [7]): 175 µg/mL; solubility at 20 h [8]: 1970 µg/mL (≈ 7210 µM); mean day of animal death (MSV; 10 mg/kg/day i.p.): 13.0 ± 1.1 days; percentage of MSV-infected mice alive at day 21 postinfection (MSV; 10 mg/kg/day i.p.): (42%); percentage of MSV-infected mice without tumors at day 21 postinfection (MSV; 10 mg/kg/day i.p.): (19%); mean day of tumor initiation (MSV; 10 mg/kg/day i.p.): 9.6 ± 1.5 days; percentage of MSV-infected mice without tumors at day 21 postinfection (MSV; 10 mg/kg/day i.p., listed as 4): 19%; mean day of animal death (MSV; 20 mg/kg/day i.p.): 15.9 ± 1.7 days; percentage of MSV-infected mice alive at day 21 postinfection (MSV; 20 mg/kg/day i.p.): (76%); percentage of MSV-infected mice without tumors at day 21 postinfection (MSV; 20 mg/kg/day i.p.): (58%); mean day of tumor initiation (MSV; 20 mg/kg/day i.p.): 12.0 ± 1.3 days; mean day of animal death (MSV; 50 mg/kg/day i.p.): 17.8 ± 2.0 days; percentage of MSV-infected mice alive at day 21 postinfection (MSV; 50 mg/kg/day i.p.): (96%); percentage of MSV-infected mice without tumors at day 21 postinfection (MSV; 50 mg/kg/day i.p.): (84%); mean day of tumor initiation (MSV; 50 mg/kg/day i.p.): 12.5 ± 1.6 days
